Assays:
Alexandergrass = experiment: Test D Alexandergrass; format: in vivo, Brachiaria plantaginea; details: Preemergence, 0 to 100 scale
Outline: (§1)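 Visual injury ratings, 0 = no injury to 100 = complete control, taken 14 to 21 days after treatment. Test chemicals were in a surfactant-containing non-phytotoxic solvent; preemergence treatments went onto the sandy loam surface of seeded greenhouse pots within one day of sowing.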

velvetleaf = experiment: Test B pre/postemergence velvetleaf; format: in vivo, Abutilon theophrasti; details: for Velvetleaf plant response rating (0 to 10 scale): 0 is no effect
Outline: (§2)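 Response is a visual 0-to-10 score relative to untreated plants, where 0 means no effect and 10 means complete control, taken twelve to sixteen days after application. Treatments went onto soil at planting and onto foliage of 1- to 4-leaf plants, using a surfactant-containing non-phytotoxic solvent.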

morningglory = experiment: Test B pre/postemergence morningglory; format: in vivo, Ipomoea hederacea; details: for Morningglory plant response rating (0 to 10 scale): 0 is no effect
Outline: as §2

bedstraw = experiment: Test B pre/postemergence bedstraw; format: in vivo, Galium aparine; details: for Bedstraw plant response rating (0 to 10 scale): 0 is no effect
Outline: as §2

Italian ryegrass = experiment: Test E Italian ryegrass; format: in vivo, Lolium multiflorum; details: Preemergence; for I. Ryegrass plant response rating (0 to 100 scale): Rate 250 g/ha
winter wheat [1] = experiment: Test E winter wheat; format: in vivo, Triticum aestivum; details: Preemergence; for Wheat (winter) plant response rating (0 to 100 scale): Rate 250 g/ha
winter barley = experiment: Test E winter barley; format: in vivo, Hordeum vulgare; details: Preemergence; for Barley (winter) plant response rating (0 to 100 scale): Rate 250 g/ha
winter wheat [2] = experiment: Test E winter wheat; format: in vivo, Triticum aestivum; details: Postemergence; for Plant response rating, Wheat (winter): 0 to 100 scale
Outline: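 Greenhouse test: compounds in non-phytotoxic solvent with surfactant; for postemergence, sprayed on plants at 1- to 4-leaf stage grown in 60:40 sandy loam/potting mix. Injury rated visually against untreated controls after about 21 to 28 days.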

blackgrass = experiment: Test E blackgrass; format: in vivo, Alopecurus myosuroides; details: Preemergence; for Blackgrass plant response rating (0 to 100 scale): Rate 250 g/ha
bermuda-grass = experiment: Test D bermudagrass; format: in vivo, Cynodon dactylon; details: Preemergence, 0 to 100 scale
Outline: as §1

green foxtail = experiment: Test E green foxtail; format: in vivo, Setaria viridis; details: Preemergence; for Green foxtail plant response rating (0 to 100 scale): Rate 250 g/ha
wild oat [3] = experiment: Test B pre/postemergence wild oat; format: in vivo, Avena fatua; details: for Wild oats plant response rating (0 to 10 scale): 0 is no effect
Outline: as §2

wild oat [4] = experiment: Test E wild oat; format: in vivo, Avena fatua; details: Preemergence; for Wild oat plant response rating (0 to 100 scale): Rate 250 g/ha
[5] = Rate 64 g/ha, 0 no injury, 100 complete control
[6] = Rate 125 g/ha, 0 no injury, 100 complete control
[7] = Postemergence, Rate 125 g/ha, scale of 0 to 10 where 0 is no effect and 10 is complete control
[8] = Preemergence, Rate 62 g/ha, scale 0 to 10 (0 no effect, 10 complete control)
[9] = Preemergence, Rate 125 g/ha, 10 is complete control
[10] = Preemergence, Rate 250 g/ha, scale 0 to 10, 0 is no effect, 10 is complete control
[11] = Preemergence, Rate 500 g/ha, scale 0 to 10 (0 no effect, 10 complete control)
[12] = Rate 62 g/ha, Postemergence, scale of 0 to 10 where 0 is no effect and 10 is complete control
[13] = Rate 250 g/ha, Postemergence, scale 0 to 10, 0 is no effect, 10 is complete control
[14] = Rate 500 g/ha, Postemergence, scale 0 to 10
[15] = Rate 62 g/ha, 0 to 100 scale, 0 no effect, 100 complete control
[16] = Rate 125 g/ha, 0 to 100 scale (0 no effect, 100 complete control)
[17] = Rate 16 g/ha, 0 no injury, 100 complete control
[18] = Rate 32 g/ha, 0 no injury, 100 complete control
[19] = Preemergence, Rate 62 g/ha, scale of 0 to 10 where 0 is no effect and 10 is complete control

Compound: CC(C)N(C(=O)n1oc(=O)n(C)c1=O)c1ccc(F)cc1 [Compound 138]
- Plant response rating, Alexandergrass (Alexandergrass; [5]): 80
- Plant response rating, Alexandergrass (Alexandergrass; [6]): 80
- Plant response rating, Alexandergrass (Alexandergrass; Rate 250 g/ha): 98
- Plant response rating, Alexandergrass (Alexandergrass; Rate 500 g/ha): 100
- Velvetleaf plant response rating (velvetleaf; [7]): 4
- Velvetleaf plant response rating (velvetleaf; [8]): 5
- Velvetleaf plant response rating (0 to 10 scale) (velvetleaf; [9]): 8
- Velvetleaf plant response rating (velvetleaf; [10]): 10
- Velvetleaf plant response rating (velvetleaf; [11]): 10
- Velvetleaf plant response rating (velvetleaf; [12]): 2
- Plant response rating, Velvetleaf (velvetleaf; [13]): 4
- Velvetleaf plant response rating (velvetleaf; [14]): 7
- Morningglory plant response rating (morningglory; [7]): 5
- Morningglory plant response rating (morningglory; [8]): 0
- Morningglory plant response rating (0 to 10 scale) (morningglory; [9]): 0
- Morningglory plant response rating (morningglory; [10]): 3
- Morningglory plant response rating (morningglory; [11]): 4
- Morningglory plant response rating (morningglory; [12]): 5
- Plant response rating, Morningglory (morningglory; [13]): 6
- Morningglory plant response rating (morningglory; [14]): 10
- Bedstraw plant response rating (bedstraw; [7]): 7
- Bedstraw plant response rating (bedstraw; [8]): 5
- Bedstraw plant response rating (0 to 10 scale) (bedstraw; [9]): 7
- Bedstraw plant response rating (bedstraw; [10]): 10
- Bedstraw plant response rating (bedstraw; [11]): 10
- Bedstraw plant response rating (bedstraw; [12]): 2
- Plant response rating, Bedstraw (bedstraw; [13]): 8
- Bedstraw plant response rating (bedstraw; Rate 500 g/ha, Postemergence, scale 0 to 10, 0 no effect, 10 complete control): 9
- Plant response rating, I. Ryegrass (Italian ryegrass; [15]): 60
- Plant response rating, I. Ryegrass (Italian ryegrass; [16]): 70
- I. Ryegrass plant response rating (0 to 100 scale) (Italian ryegrass): 80
- Plant response rating, Wheat (winter) (winter wheat [1]; [15]): 60
- Plant response rating, Wheat (winter) (winter wheat [1]; [16]): 70
- Wheat (winter) plant response rating (0 to 100 scale) (winter wheat [1]): 80
- Plant response rating, Barley (winter) (winter barley; [15]): 30
- Plant response rating, Barley (winter) (winter barley; [16]): 60
- Barley (winter) plant response rating (0 to 100 scale) (winter barley): 90
- Plant response rating, Wheat (winter) (winter wheat [2]; Rate 62 g/ha): 60
- Plant response rating, Wheat (winter) (winter wheat [2]; Rate 125 g/ha): 70
- Wheat (winter) plant response rating (winter wheat [2]; Rate 250 g/ha, 0 to 100 scale where 0 is no effect and 100 is complete control): 80
- Plant response rating, Blackgrass (blackgrass; [15]): 50
- Plant response rating, Blackgrass (blackgrass; [16]): 60
- Blackgrass plant response rating (0 to 100 scale) (blackgrass): 70
- Plant response rating, Bermudagrass (bermuda-grass; [5]): 100
- Plant response rating, Bermudagrass (bermuda-grass; [6]): 100
- Plant response rating, Bermudagrass (bermuda-grass; Rate 250 g/ha): 100
- Plant response rating, Bermudagrass (bermuda-grass; Rate 500 g/ha): 100
- Plant response rating, Green foxtail (green foxtail; [15]): 60
- Plant response rating, Green foxtail (green foxtail; [16]): 70
- Green foxtail plant response rating (0 to 100 scale) (green foxtail): 75
- Wild oats plant response rating (wild oat [3]; [7]): 2
- Wild oats plant response rating (wild oat [3]; [8]): 5
- Wild oats plant response rating (0 to 10 scale) (wild oat [3]; [9]): 9
- Wild oats plant response rating (wild oat [3]; [11]): 10
- Wild oats plant response rating (wild oat [3]; [12]): 0
- Plant response rating, Wild oats (wild oat [3]; [13]): 3
- Wild oats plant response rating (wild oat [3]; [14]): 8
- Plant response rating, Wild oat (wild oat [4]; [15]): 50
- Plant response rating, Wild oat (wild oat [4]; [16]): 60
- Wild oat plant response rating (0 to 100 scale) (wild oat [4]): 65

Compound: CC(C)N(C(=O)n1oc(=O)n(N(C)C)c1=O)c1ccc(F)cc1 [Compound 170]
- Plant response rating, Alexandergrass (Alexandergrass; [17]): 20
- Plant response rating, Alexandergrass (Alexandergrass; [18]): 20
- Plant response rating, Alexandergrass (Alexandergrass; [5]): 30
- Plant response rating, Alexandergrass (Alexandergrass; [6]): 85
- Plant response rating, Alexandergrass (Alexandergrass; Rate 250 g/ha): 98
- Plant response rating, Alexandergrass (Alexandergrass; Rate 500 g/ha): 100
- Velvetleaf plant response rating (velvetleaf; [19]): 3
- Velvetleaf plant response rating (0 to 10 scale) (velvetleaf; [9]): 7
- Velvetleaf plant response rating (velvetleaf; [10]): 10
- Velvetleaf plant response rating (velvetleaf; [11]): 10
- Plant response rating, Velvetleaf (velvetleaf; [13]): 5
- Velvetleaf plant response rating (velvetleaf; [14]): 5
- Morningglory plant response rating (morningglory; [7]): 1
- Morningglory plant response rating (morningglory; [19]): 0
- Morningglory plant response rating (0 to 10 scale) (morningglory; [9]): 3
- Morningglory plant response rating (morningglory; [10]): 6
- Morningglory plant response rating (morningglory; [11]): 10
- Morningglory plant response rating (morningglory; [12]): 0
- Plant response rating, Morningglory (morningglory; [13]): 1
- Morningglory plant response rating (morningglory; [14]): 2
- Bedstraw plant response rating (bedstraw; [7]): 0
- Bedstraw plant response rating (bedstraw; [19]): 0
- Bedstraw plant response rating (0 to 10 scale) (bedstraw; [9]): 0
- Bedstraw plant response rating (bedstraw; [10]): 6
- Bedstraw plant response rating (bedstraw; [11]): 9
- Bedstraw plant response rating (bedstraw; [12]): 0
- Plant response rating, Bedstraw (bedstraw; [13]): 0
- Bedstraw plant response rating (bedstraw; [14]): 2
- Plant response rating, I. Ryegrass (Italian ryegrass; [15]): 60
- Plant response rating, I. Ryegrass (Italian ryegrass; [16]): 70
- I. Ryegrass plant response rating (0 to 100 scale) (Italian ryegrass): 70
- Plant response rating, Wheat (winter) (winter wheat [1]; [15]): 70
- Plant response rating, Wheat (winter) (winter wheat [1]; [16]): 70
- Wheat (winter) plant response rating (0 to 100 scale) (winter wheat [1]): 70
- Plant response rating, Barley (winter) (winter barley; [15]): 60
- Plant response rating, Barley (winter) (winter barley; [16]): 60
- Barley (winter) plant response rating (0 to 100 scale) (winter barley): 70
- Plant response rating, Wheat (winter) (winter wheat [2]; Rate 62 g/ha): 80
- Plant response rating, Wheat (winter) (winter wheat [2]; Rate 125 g/ha): 75
- Plant response rating, Blackgrass (blackgrass; [15]): 60
- Plant response rating, Blackgrass (blackgrass; [16]): 60
- Blackgrass plant response rating (0 to 100 scale) (blackgrass): 85
- Plant response rating, Bermudagrass (bermuda-grass; [17]): 80
- Plant response rating, Bermudagrass (bermuda-grass; [18]): 90
- Plant response rating, Bermudagrass (bermuda-grass; [5]): 100
- Plant response rating, Bermudagrass (bermuda-grass; [6]): 100
- Plant response rating, Bermudagrass (bermuda-grass; Rate 250 g/ha): 100
- Plant response rating, Bermudagrass (bermuda-grass; Rate 500 g/ha): 100
- Plant response rating, Green foxtail (green foxtail; [15]): 100
- Plant response rating, Green foxtail (green foxtail; [16]): 100
- Green foxtail plant response rating (0 to 100 scale) (green foxtail): 100
- Wild oats plant response rating (wild oat [3]; [19]): 7
- Wild oats plant response rating (0 to 10 scale) (wild oat [3]; [9]): 9
- Wild oats plant response rating (wild oat [3]; [10]): 10
- Wild oats plant response rating (wild oat [3]; [11]): 10
- Plant response rating, Wild oats (wild oat [3]; [13]): 3
- Wild oats plant response rating (wild oat [3]; [14]): 6
- Plant response rating, Wild oat (wild oat [4]; [15]): 65
- Plant response rating, Wild oat (wild oat [4]; [16]): 70
- Wild oat plant response rating (0 to 100 scale) (wild oat [4]): 70

From patent publication US6737383B1, “Herbicidal oxadiazolidines” (priority 1999, dated 2004)
